The values below come from patent US10383859B2, “Benzo[d]thiazole derivative or salt thereof, and pharmaceutical composition including same” (Yuhan Corporation, priority 2016, dated 2019).

SMILES strings stand for the structures.

The first experiment relates to A549 cells. The experiment in a line: Cell migration assay (24-well transwell, laminin). As to conditions: Homo sapiens, A549, 6 h, laminin 10 μg/mL in lower well, test compounds 0.39˜100 μM, migrated cells counted, read-out: Inhibitory activity against cell migration. Format: cell-based, human. Here is the method: Cell migration was measured with a 24-well transwell having a polycarbonate membrane (8.0 μm pore size, Costar) at the bottom of the upper chamber. Each lower well was treated with laminin (10 μg/mL) and test compounds in predetermined concentrations (0.39˜100 μM) along with a serum-free RPMI1640 medium. A549 cells (Korean Cell Line Bank) were suspended in a serum-free RPMI1640 medium at a concentration of 1×10^6 cells/mL and then the test compounds were added thereto at the indicated concentrations. Each resulting solution (100 μL) was added to the upper chamber. The cells were cultured at 37° C. for 6 hours in a CO2 incubator. The upper chamber was taken out and then the cells were fixed with PBS containing 70% methyl alcohol for 10 minutes, followed by washing with PBS twice. The cells were stained with hematoxylin (Sigma) for 10 minutes and then washed with distilled water. The non-migrated cells were removed from the upper portion of the polycarbonate membrane with a cotton swab. The membranes were excised and separated from the chamber, and then mounted to a slide using a gel mount reagent (Biomeda, USA). The migrated cells (attached to the lower face of the membrane) were counted at three randomly selected sites under a microscope (×20). The cell counting was performed with the Image J program. From the counted cell numbers, each IC50 value was calculated by non-linear regression curve fit using the “GraphPad Prism” program.
The cells are pulled by laminin residing in the lower chamber and then passed through the polycarbonate membrane, so as to attach to the lower face of the membrane.
For the molecule `COc1ccc(CCN(Cc2ccc(C(=O)O)cc2)c2nc3cccc(F)c3s2)cc1` [Example 1, 4-({(7-fluorobenzo[d]thiazol-2-yl)[2-(4-methoxyphenyl)ethyl]amino}methyl)benzoic acid], the IC50 is under 1000 nM. `O=C(O)c1ccc(CN(CCc2ccccc2Cl)c2nc3cccc(F)c3s2)cc1` [Example 2, 4-(((2-chlorophenylethyl)(7-fluorobenzo[d]thiazol-2-yl)amino)methyl)benzoic acid]: the IC50 was under 1000 nM. On the same count and under the same terms, for `O=C(O)c1ccc(CN(CCc2cccc(F)c2)c2nc3cccc(F)c3s2)cc1` [Example 3, 4-({(7-fluorobenzo[d]thiazol-2-yl)[2-(3-fluorophenyl)ethyl]amino}methyl)benzoic acid] the value was over 10000 nM; for `O=C(O)c1ccc(CN(CCc2ccc(Cl)cc2)c2nc3cccc(F)c3s2)cc1` [Example 4, 4-{[[2-(4-chlorophenyl)ethyl](7-fluorobenzo[d]thiazol-2-yl)amino]methyl}benzoic acid], 1000 to 10000 nM; for `O=C(O)c1ccc(CN(CCc2cccc(Cl)c2)c2nc3cccc(F)c3s2)cc1` [Example 5, 4-{[[2-(3-chlorophenyl)ethyl](7-fluorobenzo[d]thiazol-2-yl)amino]methyl}benzoic acid], over 10000 nM.

In the case of `Cc1ccc(CCN(Cc2ccc(C(=O)O)cc2)c2nc3cccc(F)c3s2)cc1` [Example 6, 4-(((7-fluorobenzo[d]thiazol-2-yl)(4-methylphenylethyl)amino)methyl)benzoic acid], the IC50 is under 1000 nM. The same measure, in the same setting: the result for `O=C(O)c1ccc(CN(CCc2ccc(F)cc2)c2nc3cccc(F)c3s2)cc1` [Example 8, 4-({(7-fluorobenzo[d]thiazol-2-yl)[2-(4-fluorophenyl)ethyl]amino}methyl)benzoic acid] reads over 10000 nM; that for `CCOc1ccc(CCN(Cc2ccc(C(=O)O)cc2)c2nc3cccc(F)c3s2)cc1` [Example 9, 4-{[[2-(4-ethoxyphenyl)ethyl](7-fluorobenzo[d]thiazol-2-yl)amino]methyl}benzoic acid], under 1000 nM. Still for that read-out and setting: the result for `CCCOc1ccc(CCN(Cc2ccc(C(=O)O)cc2)c2nc3cccc(F)c3s2)cc1` [Example 10, 4-({(7-fluorobenzo[d]thiazol-2-yl)[2-(4-propoxyphenyl)ethyl]amino}methyl)benzoic acid] reads 1000 to 10000 nM; that for `CC(C)Oc1ccc(CCN(Cc2ccc(C(=O)O)cc2)c2nc3cccc(F)c3s2)cc1` [Example 11, 4-({(7-fluorobenzo[d]thiazol-2-yl)[2-(4-isopropoxyphenyl)ethyl]amino}methyl)benzoic acid], 1000 to 10000 nM. Same read-out and setting: for `CSc1ccc(CCN(Cc2ccc(C(=O)O)cc2)c2nc3cccc(F)c3s2)cc1` [Example 12, 4-{[(7-fluorobenzo[d]thiazol-2-yl){2-[4-(methylsulfanyl)phenyl]ethyl}amino]methyl}benzoic acid] the value was under 1000 nM. In the case of `CSc1cccc(CCN(Cc2ccc(C(=O)O)cc2)c2nc3cccc(F)c3s2)c1` [Example 13, 4-{[(7-fluorobenzo[d]thiazol-2-yl){2-[3-(methylsulfanyl)phenyl]ethyl}amino]methyl}benzoic acid], the IC50 is under 1000 nM. On the same count and under the same terms, the result for `COc1ccc(OC)c(CCN(Cc2ccc(C(=O)O)cc2)c2nc3cccc(F)c3s2)c1` [Example 14, 4-({[2-(2,5-dimethoxyphenyl)ethyl](7-fluorobenzo[d]thiazol-2-yl)amino}methyl)benzoic acid] reads over 10000 nM; that for `COc1ccc(CCN(Cc2ccc(C(=O)O)cc2)c2nc3cccc(F)c3s2)cc1OC` [Example 15, 4-({[2-(3,4-dimethoxyphenyl)ethyl](7-fluorobenzo[d]thiazol-2-yl)amino}methyl)benzoic acid], under 1000 nM; that for `COc1ccccc1CCN(Cc1ccc(C(=O)O)cc1)c1nc2cccc(F)c2s1` [Example 16, 4-({(7-fluorobenzo[d]thiazol-2-yl)[2-(2-methoxyphenyl)ethyl]amino}methyl)benzoic acid], over 10000 nM. `Cc1cccc(CCN(Cc2ccc(C(=O)O)cc2)c2nc3cccc(F)c3s2)c1` [Example 17, 4-({(7-fluorobenzo[d]thiazol-2-yl)[2-(3-methylphenyl)ethyl]amino}methyl)benzoic acid]: the IC50 is over 10000 nM.

With `CC(C)COc1ccc(CCN(Cc2ccc(C(=O)O)cc2)c2nc3cccc(F)c3s2)cc1` [Example 18, 4-({(7-fluorobenzo[d]thiazol-2-yl)[2-(4-isobutoxyphenyl)ethyl]amino}methyl)benzoic acid], the IC50 lay within 1000 to 10000 nM.

Take `O=C(O)c1ccc(CN(CCc2ccc(OCC3CC3)cc2)c2nc3cccc(F)c3s2)cc1` [Example 19, 4-{[[2-(4-cyclopropylmethoxyphenyl)ethyl](7-fluorobenzo[d]thiazol-2-yl)amino]methyl}benzoic acid]: the IC50 was under 1000 nM. Same read-out and setting: for `CNc1ccc(CCN(Cc2ccc(C(=O)O)cc2)c2nc3cccc(F)c3s2)cc1` [Example 20, 4-{[(7-fluorobenzo[d]thiazol-2-yl){2-[4-(methylamino)phenyl]ethyl}amino]methyl}benzoic acid] the value was under 1000 nM; for `CN(C)c1ccc(CCN(Cc2ccc(C(=O)O)cc2)c2nc3cccc(F)c3s2)cc1` [Example 21, 4-{[{2-[4-(dimethylamino)phenyl]ethyl}(7-fluorobenzo[d]thiazol-2-yl)amino]methyl}benzoic acid], under 1000 nM; for `O=C(O)c1ccc(CN(CCc2ccccc2)c2nc3cccc(F)c3s2)cc1` [Example 22, 4-{[(7-fluorobenzo[d]thiazol-2-yl)(2-phenylethyl)amino]methyl}benzoic acid], 1000 to 10000 nM. Still for that read-out and setting: the result for `O=C(O)c1ccc(CN(CCc2ccc(OCC3CCCCC3)cc2)c2nc3cccc(F)c3s2)cc1` [Example 23, 4-{[[2-(4-cyclohexylmethoxyphenyl)ethyl]-(7-fluorobenzo[d]thiazol-2-yl)amino]methyl}benzoic acid] reads over 10000 nM. The same measure, in the same setting: for `O=C(O)c1ccc(CN(CCc2ccc(OCC3CCC3)cc2)c2nc3cccc(F)c3s2)cc1` [Example 24, 4-{[[2-(4-cyclobutylmethoxyphenyl)ethyl]-(7-fluorobenzo[d]thiazol-2-yl)amino]methyl}benzoic acid] the value was 1000 to 10000 nM; for `CCOc1ccc(CCN(Cc2ccc(C(=O)O)cc2)c2nc3cccc(F)c3s2)cc1OC` [Example 25, 4-({[2-(4-ethoxy-3-methoxyphenyl)ethyl](7-fluorobenzo[d]thiazol-2-yl)amino}methyl)benzoic acid], over 10000 nM. With `COc1ccc(CCN(Cc2ccc(C(=O)O)cc2)c2nc3cccc(F)c3s2)c(F)c1` [Example 26, 4-({(7-fluorobenzo[d]thiazol-2-yl)[2-(2-fluoro-4-methoxyphenyl)ethyl]amino}methyl)benzoic acid], the IC50 is under 1000 nM.

For the molecule `COc1ccc(CCN(Cc2ccc(C(=O)O)cc2)c2nc3cccc(F)c3s2)c(OC)c1` [Example 27, 4-({[2-(2,4-dimethoxyphenyl)ethyl](7-fluorobenzo[d]thiazol-2-yl)amino}methyl)benzoic acid], the IC50 lay within 1000 to 10000 nM.

Take `COc1ccc(CCN(Cc2ccc(C(=O)O)cc2)c2nc3cccc(F)c3s2)cc1F` [Example 28, 4-({(7-fluorobenzo[d]thiazol-2-yl)[2-(3-fluoro-4-methoxyphenyl)ethyl]amino}methyl)benzoic acid]: the IC50 is under 1000 nM.

`COc1ccc(CCN(Cc2ccc(C(=O)O)cc2)c2nc3cccc(F)c3s2)cc1Cl` [Example 29, 4-({[2-(3-chloro-4-methoxyphenyl)ethyl](7-fluorobenzo[d]thiazol-2-yl)amino}methyl)benzoic acid]: the IC50 is under 1000 nM. Same read-out and setting: for `CCC(C)Oc1ccc(CCN(Cc2ccc(C(=O)O)cc2)c2nc3cccc(F)c3s2)cc1` (stereo not shown) [Example 30, 4-{[[2-(4-sec-butoxyphenyl)ethyl](7-fluorobenzo[d]thiazol-2-yl)amino]methyl}benzoic acid] the value was over 10000 nM; for `CCNc1ccc(CCN(Cc2ccc(C(=O)O)cc2)c2nc3cccc(F)c3s2)cc1` [Example 31, 4-{[[2-(4-ethylaminophenyl)ethyl](7-fluorobenzo[d]thiazol-2-yl)amino]methyl}benzoic acid], 1000 to 10000 nM; for `CCc1ccc(CCN(Cc2ccc(C(=O)O)cc2)c2nc3cccc(F)c3s2)cc1` [Example 32, 4-({[2-(4-ethylphenyl)ethyl](7-fluorobenzo[d]thiazol-2-yl)amino}methyl)benzoic acid], under 1000 nM. On the same count and under the same terms, the result for `CC(C)c1ccc(CCN(Cc2ccc(C(=O)O)cc2)c2nc3cccc(F)c3s2)cc1` [Example 33, 4-{[(7-fluorobenzo[d]thiazol-2-yl){2-[4-(propan-2-yl)phenyl]ethyl}amino]methyl}benzoic acid] reads over 10000 nM; that for `O=C(O)c1ccc(CN(CCc2cccc(F)c2F)c2nc3cccc(F)c3s2)cc1` [Example 34, 4-({[2-(2,3-difluorophenyl)ethyl](7-fluorobenzo[d]thiazol-2-yl)amino}methyl)benzoic acid], over 10000 nM.

The experiment is the same for the next values; noted with them: laminin 10 μg/mL in lower well, test compounds 0.39˜100 μM, 6 hours, migrated cells counted, read-out: Inhibitory activity against cell migration.
In the case of `COc1cccc(CCN(Cc2ccc(C(=O)O)cc2)c2nc3cccc(F)c3s2)c1` [Example 7, 4-({(7-fluorobenzo[d]thiazol-2-yl)[2-(3-methoxyphenyl)ethyl]amino}methyl)benzoic acid], the IC50 lay in the range of 1000 to 10000 nM.
